Assay: UV absorption (UV-VIS spectra in 2-propanol, 1 mg/100 ml)
Type: physicochemical
Set-up: UV absorbance at λmax (1 mg/100 ml): unit not given here
Conditions: for UVB (280-320 nm) max. abs / UVB max. at λ [nm] / UVA (400-320 nm) max. abs / UVA max. at λ [nm]: solvent 2-Propanol, c 1 mg/100 ml; for UV-VIS λmax / UV absorbance at λmax (1 mg/100 ml): 1 mg/100 ml; for UV absorbance at λmax (1 mg/100 ml): value in brackets after λmax in the synthesis example
Procedure: FIG. 1: UV absorption spectra of 1-hydroxy-3-[(E)-3-(4-methoxyphenyl)-2-propenoyloxy]-2-oxopropane (Example 1a) and 1-hydroxy-3-(2-cyano-3,3-diphenylacryloyloxy)-2-oxopropane (Example 1b) (in each case measured in 2-propanol at a concentration of 1 mg/100 ml)
FIG. 2: UV absorption spectra of 3-[4-(3-hydroxy-2-oxopropoxymethyl)benzylidene]-4,7,7-trimethylbicyclo[2.2.1]heptan-2-one (Example 9), N-(2,3-dihydroxypropyl)-(E)-3-(4-methoxyphenyl)acrylamide (Example 10a) and N-(2,3-dihydroxypropyl)-N-methyl-(E)-3-(4-methoxyphenyl)acrylamide (Example 10b) (in each case measured in 2-propanol at a concentration of 1 mg/100 ml).

UVB (280-320 nm) max. abs | UVB max. at λ [nm] | UVA (400-320 nm) max. abs | UVA max. at λ [nm] | UV-VIS λmax [nm] | UV absorbance at λmax (1 mg/100 ml) | SMILES
0.796 | 306.0 |  |  |  |  | COc1ccc(/C=C/C(=O)OCC2COC(C)(C)O2)cc1 (stereo not shown)
0.881 | 302.0 |  |  |  |  | COc1ccc(/C=C/C(=O)OCC(O)CO)cc1 (stereo not shown)
0.537 | 287.9 | 0.363 | 327.5 |  |  | O=C(c1ccccc1)c1ccc(OCC(O)CO)cc1O (stereo not shown)
0.473 | 286.1 | 0.312 | 328.3 |  |  | CC1(C)OCC(COc2ccc(C(=O)c3ccccc3)c(O)c2)O1 (stereo not shown)
0.692 | 298.0 |  |  |  |  | CC12CCC(C(=O)/C1=C\c1ccc(CNCC(O)CO)cc1)C2(C)C (stereo not shown)
0.711 | 296 |  |  |  |  | CN(Cc1ccc(/C=C2\C(=O)C3CCC2(C)C3(C)C)cc1)CC(O)CO (stereo not shown) [3-(4-{[(2,3-Dihydroxypropyl)methylamino]methyl}benzylidene)-4,7,7-trimethylbicyclo[2.2.1]heptan-2-one]
0.615 | 298.0 |  |  |  |  | COC(CO)(COCc1ccc(/C=C2\C(=O)C3CCC2(C)C3(C)C)cc1)OC (stereo not shown) [3-[4-(3-hydroxy-2,2-dimethoxypropoxymethyl)benzylidene]-4,7,7-trimethylbicyclo[2.2.1]heptan-2-one]
0.874 | 296 |  |  |  |  | CC12CCC(C(=O)/C1=C\c1ccc(COCC(=O)CO)cc1)C2(C)C (stereo not shown) [3-[4-(3-hydroxy-2-oxopropoxymethyl)benzylidene]-4,7,7-trimethylbicyclo[2.2.1]heptan-2-one]
 |  |  |  | 310.0 | 0.86 | CN(C)c1ccc(C(=O)OCC2COC(C)(C)O2)cc1 (stereo not shown) [Example 4, 4-(4-Dimethylaminophenylcarbonyloxymethyl)-2,2-dimethyl-1,3-dioxolane]
 |  |  |  | 310.0 | 1.01 | CN(C)c1ccc(C(=O)OCC(O)CO)cc1 (stereo not shown) [Example 5, 2,3-Dihydroxypropyl 4-dimethylaminobenzoate]
 |  |  |  | 307.0 | 0.688 | CCCCC(CC)COc1ccc(/C=C/C(=O)NCC(O)CO)cc1 (stereo not shown) [Example 10c, N-(2,3-dihydroxypropyl)-(E)-[4-(2-ethylhexyloxyphenyl)]acrylamide]
 |  |  |  | 298.0 | 0.575 | CN(C)c1ccc(C(=O)NCC(=O)CO)cc1 [Example 22, N-(3-hydroxy-2-oxopropyl)-4-dimethylaminobenzamide]
0.107 | 300.67 |  |  |  |  | COc1ccc(/C=C/C(=O)OCC(=O)COC(=O)/C=C/c2ccc(OC)cc2)cc1 [drawing 73]
0.893 | 311.33 |  |  |  |  | COc1ccc(/C=C/C(=O)OCC(=O)CO)cc1 [drawing 74]
0.936 | 292.00 |  |  |  |  | COc1ccc(/C=C/C(=O)NCC(O)CO)cc1 (stereo not shown) [drawing 75]

SMILES | UVB (280-320 nm) max. abs | UVB max. at λ [nm] | UVA (400-320 nm) max. abs | UVA max. at λ [nm] | UV-VIS λmax [nm] | UV absorbance at λmax (1 mg/100 ml)
CN(Cc1ccc(/C=C2\C(=O)C3CCC2(C)C3(C)C)cc1)CC(O)CO[Si](C)(C)C(C)(C)C (stereo not shown) [3-[4-({[3-(tert-butyldimethylsilyloxy)-2-hydroxypropyl]-methylamino}methyl)benzylidene]-4,7,7-trimethylbicyclo[2.2.1]heptan-2-one] | 0.545 | 297 |  |  |  | 
CN(C)c1ccc(C(=O)OCC(O)CO[Si](C)(C)C(C)(C)C)cc1 (stereo not shown) [Example 6, 3-(tert-Butyldimethylsilyloxy)-2-hydroxypropyl 4-dimethylaminobenzoate] |  |  |  |  | 310.0 | 1.01
CN(C)c1ccc(C(=O)NCC(=O)CO[Si](C)(C)C(C)(C)C)cc1 [Example 19, N-[3-(tert-butyldimethylsilyloxy)-2-oxopropyl]-4-dimethylaminobenzamide] |  |  |  |  | 312.0 | 0.713
